Test results taken from patent publication US6555676B2, “Biologically active phosphotriester-type compounds” (Centre National de la Recherche Scientifique, priority 1992, dated 2003).
pEC50: −log10 of the molar value. Like-named read-outs stand apart in the source and are kept apart here.

Assays:
[1] = biological target: reverse transcriptase (Human immunodeficiency virus type 1 group M subtype B, UniProt P04585); details: cited from earlier work
[2] = tested on: non-infected CEM-TK− cells; test: Toxic effect on non-infected cells (MTT/formazan), CEM-TK−; assay type: cell-based, Human; details: 50% inhibition of formazan formation, 5 days
Procedure: (§1) The toxic effect on non-infected CEMs is assessed by a calorimetric reaction based on the capacity of living cells to reduce 3-(4,5-dimethylthiazol-2-yl)-2,5-diphenyltetrazolium bromide into formazan after incubation for 5 days in the presence of various concentrations of the compounds.

[3] = tested on: HIV-1 (LAI isolate); test: Anti-HIV-1 activity (RTase in culture supernatant) in CEM-TK− cells; assay type: cell-based; details: for pEC50: CEM-TK− cells, lowest concentration reducing RTase production by at least 50%, 5 days, read-out: ED50 (the source's name)
Procedure: (§2) HIV-1 replication (LAI isolate) in CEM cells is measured by assaying the reverse transcriptase (RTase) in the culture supernatant after infection for 5 days. This activity reflects the presence of the virus released by the cells. After adsorption of the virus, the test compounds are added, at various concentrations, to the culture medium.
(§3) Antiviral activity is expressed as the lowest concentration of compound which reduces the production of RTase by at least 50% (ED50)
(§4) The compounds were tested as described in Example 5 above.
(§5) The iso-SATE pronucleotides of Examples 16A and 16B were evaluated for their inhibitory effects on the replication of HIV-1 in CEM-SS and in thymidine-kinase deficient cell lines (CEM/TD). For comparison, the parent nucleosides ddA and d4T, and the corresponding bis(SATE) phosphotriesters bis(tBuSATE)ddAMP (the compound of Example 9) and bis(tBuSATE)d4TMP, were evaluated in the same experiments.

[4] = tested on: non-infected CEM-SS cells; test: Toxic effect on non-infected cells (MTT/formazan), CEM-SS; assay type: cell-based, Human; details: 50% inhibition of formazan formation, 5 days
Procedure: as §1

[5] = tested on: non-infected MT-4 cells; test: Toxic effect on non-infected cells (MTT/formazan), MT-4; assay type: cell-based, Human; details: 50% inhibition of formazan formation
[6] = assay type: in vitro ADME
Procedure: (§6) The “ISRP on line” HPLC technique (“On-line Internal Surface Reversed-Phase Cleaning: The Direct HPLC Analysis of Crude Biological Samples”, A. Pompon, I. Lefebvre and J. L. Imbach, Biochemical Pharmacology, 43,1769-1775 (1992) was used for this study, the compound studied being incubated respectively in culture medium (RPMI/10% inactivated serum) and in a total cell extract (CEM).
(§7) Certain kinetic studies comparing the compound of Example 16A, i.e., S,S′-bis(O-pivaloyl-2-oxyethyl) O-2, 3-dideoxyadenosin-5′-yl phosphorodithiolate, also designated as iso[Bis(SATE)ddA] and its isosteric compound of Example 9, i.e., O-(2′,3′-dideoxyadenosin-5′-yl)-O,O′-bis([…]) phosphate, also designated as [Bis(SATE)ddAMP] were effected. The kinetic were studies were performed in culture medium (RPMI containing […] heat-inactivated fetal calf serum) in order to evaluate the stability of the pronucleotides in the extracellular medium used for antiviral evaluation in cell culture systems, and in total cell extracts that mimic the behavior of the compounds inside cells. The “on-line ISPR cleaning” HPLC method of Lefebvre et al., J. Med. Chem., 38, 3941-3950, 1995, were used for the studies. The products resulting from the decomposition were characterized by co-injection with authentic samples and/or by coupled HPLC/Mass Spectroscopy. The kinetics of transformation of the two isomeric pronucleotides strongly differed according to the medium. In culture medium the first iso-SATE group was cleaved in 38.5 hr whereas the first SATE group was cleaved in 165 hr. The second iso-SATE group was cleaved in 5.8 hr whereas the second SATE group was cleaved in 46 hr. In total cell extracts, the first iso-SATE group was cleaved in 5.3 hr whereas the SATE group was cleaved in 1 hr.

[7] = assay type: in vitro ADME, Human
Procedure: as §6, §7

[8] = tested on: HIV-1 (LAI isolate); test: Anti-HIV-1 activity (RTase in culture supernatant) in CEM-SS cells; assay type: cell-based; details: lowest concentration reducing RTase production by at least 50%, 5 days, read-out: ED50 (the source's name)
Procedure: as §2, §3, §4, §5

[9] = tested on: HIV-1; test: Anti-HIV-1 activity in MT-4 cells; assay type: cell-based, Human immunodeficiency virus; details: for pEC50: read-out: ED50 (the source's name)
Procedure: as §2, §3, §4

[10] = culture medium (RPMI with heat-inactivated fetal calf serum)

For `O=c1ccn([C@H]2CC[C@@H](COP(=O)(O)OP(=O)(O)OP(=O)(O)O)O2)c(=O)[nH]1` [2′,3′-Dideoxyuridine 5′-triphosphate], the “inhibition of reverse transcriptase (in words)” value [1] is listed as “excellent inhibitor”.

In the case of `Cc1cn([C@H]2C[C@H](N=[N+]=[N-])[C@@H](CO)O2)c(=O)[nH]c1=O` [AZT, 3′-azido-2′,3,-dideoxythymidine, reference compound], the CD50 [2] was “(CD50 > 10^−4 M)”, the pEC50 [3] was under 4.00 and the CD50 [4] was “(CD50 > 10^−4 M)”. For the same molecule, the CD50 [5] was “(CD50 > 10^−4 M)”.

In the case of `CC(=O)SCCOP(=O)(OCCSC(C)=O)OC[C@@H]1CC[C@H](n2cnc3c(N)ncnc32)O1` [Bis(SATE)ddAMP, O-(2′,3′-Dideoxyadenosin-5′-yl)—O,O′-bis(S-acetyl-2-thioethyl)-phosphate], the CD50 [2] was “(CD50 > 10^−5 M)”, the “time in which the first (iso-)SATE group was cleaved” value (from here on “time in which the first”) [6] was 165 h and the “time in which the second (iso-)SATE group was cleaved” value [6] was 46 h. For the same molecule, the “time in which the first” value [7] was 1 h.

In the case of `CC(=O)SCCOP(=O)(OCCSC(C)=O)OC[C@@H]1CC[C@H](n2cnc3c(=O)[nH]cnc32)O1` [Bis(SATE)ddIMP, O-(2′,3″ -Dideoxyinosin-5′-yl)-O,O′-bis(S-acetyl-2-thioethyl)-phosphate], the CD50 [2] was “(CD50 > 10^−4 M)”, the CD50 [4] was “(CD50 > 10^−4 M)” and the CD50 [5] was “(CD50 > 10^−4 M)”.

For `CC(=O)SCCOP(=O)(OCCSC(C)=O)OC[C@@H]1CC[C@H](n2cc(C)c(=O)[nH]c2=O)O1` [Bis(SATE)ddTMP, O-(2′,3′-Dideoxythymidin-5′-yl)-O,O′-bis(S-acetyl-2-thioethyl)-phosphate], the CD50 [2] was “(CD50 > 10^−4 M)”.

With `CC(=O)SCCOP(=O)(OCCSC(C)=O)OC[C@@H]1CC[C@H](n2ccc(=O)[nH]c2=O)O1` [Compound 1, O-(2′,3′-dideoxyuridin-5′-yl)-O,O′-bis(S-acetyl-2-thioethyl)phosphate] the pEC50 [8] was 5.30, the CD50 [2] was “(CD50 7 · 10^−5 M)” and the pEC50 [3] was 5.40. The ED50 [9] was 2 · 10^−6 M, the CD50 [4] was “(CD50 9 · 10^−5 M)” and the CD50 [5] was “(CD50 9 · 10^−5 M)”.

For `O=c1ccn([C@H]2CC[C@@H](COP(=O)(OCCSSCCO)OCCSSCCO)O2)c(=O)[nH]1` [Compound 2, O,O′-Bis(S-(2-hydroxyethylsufidyl)-2-thioethyl)-o-(2′,3′-dideoxyuridin-5′-yl)phosphate], the pEC50 [8] was 4.22, the CD50 [2] was “(CD50 8 · 10^−5 M)” and the “half-life in culture medium” value ([6]; RPMI/10% inactivated serum) was 9 h. For the same molecule, the pEC50 [3] was 5.10, the CD50 [4] was “(CD50 10^−4 M)” and the “half-life in cell extract” value ([7]; total cell extract (CEM)) was “less than 5 minutes”.

With `Cc1cn([C@H]2C[C@H](N=[N+]=[N-])[C@@H](COP(=O)(OCCSSCCO)OCCSSCCO)O2)c(=O)[nH]c1=O` [Compound 3, O,O′-Bis(S-(2-hydroxyethylsufidyl)-2-thioethyl)-O-(3′azido-3′-deoxythymidin-5′-yl)phosphate] the pEC50 [8] was 9.15, the CD50 [2] was “(CD50 8 · 10^−5 M)” and the pEC50 [3] was 5.15. The pEC50 [9] was 9.00, the CD50 [4] was “(CD50 8 · 10^−5 M)” and the CD50 [5] was “(CD50 8 · 10^−5 M)”.

For `Nc1ncnc2c1ncn2CCOCP(=O)(OCCSSCCO)OCCSSCCO` [Compound 4], the pEC50 [8] was 5.52, the CD50 [2] was “(CD50 4 · 10^−5 M)” and the pEC50 [3] was 7.10. The pEC50 [9] was 6.10, the CD50 [4] was “(CD50 > 10^−4 M)” and the CD50 [5] was “(CD50 2 · 10^−5 M)”.

With `Cc1cn([C@H]2C=C[C@@H](CO)O2)c(=O)[nH]c1=O` [d4T, reference compound] the “anti-HIV-1 activity (in words, FIG. 10)” value ([3]; thymidine-kinase deficient CEM cells) was “weakly active”.

In the case of `Nc1ncnc2c1ncn2[C@H]1CC[C@@H](CO)O1` [ddA, reference compound], the CD50 [2] was “(CD50 > 10^−4 M)”, the pEC50 [9] was 5.00 and the CD50 [4] was “(CD50 > 10^−4 M)”. For the same molecule, the CD50 [5] was “(CD50 > 10^−4 M)”.

In the case of `O=c1[nH]cnc2c1ncn2[C@H]1CC[C@@H](CO)O1` [ddI, reference compound], the CD50 [2] was “(CD50 > 10^−4 M)”, the CD50 [4] was “(CD50 > 10^−4 M)” and the CD50 [5] was “(CD50 > 10^−4 M)”.

For `CC(C)(C)C(=O)OCCSP(=O)(OC[C@@H]1CC[C@H](n2cnc3c(N)ncnc32)O1)SCCOC(=O)C(C)(C)C` [iso[Bis(SATE)ddA], S,S′-bis (Ö-pivaloyl-2-oxyethyl) O2′,3′-dideoxyadenosin-5′-yl phosphorodithiolate], the “time in which the first” value [6, 10] was 38.5 h, the “time in which the second (iso-)SATE group was cleaved” value [6, 10] was 5.8 h and the “time in which the first” value ([7]; total cell extracts) was 5.3 h.
